Laboratory results: ChEMBL document CHEMBL5131437, “Development of novel 2-aminoalkyl-6-(2-hydroxyphenyl)pyridazin-3(2H)-one derivatives as balanced multifunctional agents against Alzheimer's disease” (Eur J Med Chem, 2022)

What was measured:
[1] = Antioxidant activity of compound assessed as trolox equivalent of ORAC radical scavenging activity by ORAC-FL assay; assay type: functional
[2] = tested on: Butyrylcholinesterase (Rattus norvegicus); assay: Inhibition of rat serum BuChE at 10 uM by Ellman's method relative to control
Acetylcholinesterase = Acetylcholinesterase (Electrophorus electricus, UniProt O42275); assay: Inhibition of electric eel AChE by Ellman's method; conditions: read-out: IC50
Sequence of Acetylcholinesterase (O42275 whole entry): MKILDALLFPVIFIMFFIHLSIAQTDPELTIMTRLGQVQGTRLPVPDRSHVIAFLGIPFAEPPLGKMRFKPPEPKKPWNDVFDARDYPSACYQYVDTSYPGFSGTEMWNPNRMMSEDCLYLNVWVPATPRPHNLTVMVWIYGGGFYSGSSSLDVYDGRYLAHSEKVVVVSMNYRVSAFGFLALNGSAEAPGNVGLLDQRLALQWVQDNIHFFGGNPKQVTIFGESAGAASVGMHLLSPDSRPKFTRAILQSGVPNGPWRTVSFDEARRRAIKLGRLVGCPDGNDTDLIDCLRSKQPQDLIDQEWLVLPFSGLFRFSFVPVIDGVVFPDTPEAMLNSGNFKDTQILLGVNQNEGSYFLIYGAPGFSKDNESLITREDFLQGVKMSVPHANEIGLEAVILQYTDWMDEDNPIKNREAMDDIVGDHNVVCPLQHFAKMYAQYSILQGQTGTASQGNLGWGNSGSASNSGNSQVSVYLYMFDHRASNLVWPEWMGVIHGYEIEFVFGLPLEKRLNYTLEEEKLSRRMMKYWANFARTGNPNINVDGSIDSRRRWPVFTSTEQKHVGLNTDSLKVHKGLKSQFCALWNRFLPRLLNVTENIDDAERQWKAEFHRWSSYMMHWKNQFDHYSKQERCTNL

[3] = biological target: Amyloid-beta precursor protein (Homo sapiens) (UniProt P05067); assay: Inhibition of self-induced amyloid beta (1 to 42) (unknown origin) aggregation by Thioflavin T based fluorometric assay relative to control; set-up: concentration or dose not given beside the values; conditions: concentration not given here
Sequence of Amyloid-beta precursor protein (Homo sapiens) (P05067 whole entry): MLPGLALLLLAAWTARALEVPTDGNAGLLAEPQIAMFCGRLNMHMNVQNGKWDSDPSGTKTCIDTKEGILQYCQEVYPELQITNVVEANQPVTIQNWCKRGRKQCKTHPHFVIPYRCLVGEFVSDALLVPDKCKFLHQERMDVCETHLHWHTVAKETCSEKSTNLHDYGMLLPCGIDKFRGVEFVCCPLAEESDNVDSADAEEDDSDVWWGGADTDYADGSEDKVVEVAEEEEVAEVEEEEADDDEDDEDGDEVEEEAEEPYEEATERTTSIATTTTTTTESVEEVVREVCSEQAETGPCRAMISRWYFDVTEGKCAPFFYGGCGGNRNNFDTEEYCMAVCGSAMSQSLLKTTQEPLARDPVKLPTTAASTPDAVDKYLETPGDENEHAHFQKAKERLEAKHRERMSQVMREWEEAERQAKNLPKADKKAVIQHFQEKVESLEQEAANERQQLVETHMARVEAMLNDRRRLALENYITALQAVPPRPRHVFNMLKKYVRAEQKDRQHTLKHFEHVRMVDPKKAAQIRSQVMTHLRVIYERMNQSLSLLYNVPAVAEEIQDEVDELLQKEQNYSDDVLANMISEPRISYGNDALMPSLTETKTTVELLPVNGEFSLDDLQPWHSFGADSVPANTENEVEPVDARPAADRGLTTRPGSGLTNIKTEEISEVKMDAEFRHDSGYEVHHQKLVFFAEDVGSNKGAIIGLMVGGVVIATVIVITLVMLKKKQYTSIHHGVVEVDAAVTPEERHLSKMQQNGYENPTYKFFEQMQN

| SMILES | Activity [1] | inhibition [2] | IC50 (Acetylcholinesterase) | inhibition [3] |
| --- | --- | --- | --- | --- |
| CCN(CCCCCCn1nc(-c2cc(Br)ccc2O)ccc1=O)Cc1ccccc1N(C)C | 1.48 | 32.2% | 250 nM | – |
| O=c1ccc(-c2ccccc2O)nn1CCCCCCN1CCCC1 | 2.98 | 15.7% | 1600 nM | – |
| CCN(CCCCCCn1nc(-c2ccccc2O)ccc1=O)Cc1ccccc1 | 2.96 | 25.7% | 910 nM | 15.4% |
| CCN(CCCCCCn1nc(-c2cc(OC)ccc2O)ccc1=O)Cc1ccccc1OC | 1.96 | 27.3% | 630 nM | – |
| CN(CCCCCCn1nc(-c2ccccc2O)ccc1=O)Cc1ccccc1 | 2.78 | 28.6% | 930 nM | – |
| CCN(CCCCCCn1nc(-c2ccccc2O)ccc1=O)Cc1ccccc1F | 2.43 | 15.7% | 1030 nM | 27.4% |
| CCN(CCCCCCOc1ccc(-c2ccccc2O)nn1)Cc1ccc(F)cc1 | 0.61 | < 5% | 49000 nM | – |
| CCN(CCCCCCn1nc(-c2cc(Br)ccc2O)ccc1=O)Cc1ccccc1OC | 1.53 | 34.2% | 880 nM | – |
| CCN(CCCCCCn1nc(-c2cc(Cl)ccc2O)ccc1=O)Cc1cccc(F)c1 | 0.84 | 15.8% | 1430 nM | – |
| CCN(CCCCCCn1nc(-c2ccccc2O)ccc1=O)Cc1cccc(Cl)c1 | 1.56 | 17.6% | 2930 nM | – |
| O=c1ccc(-c2ccccc2O)n[nH]1 | 2.15 | < 5% | – | – |
| CCN(CCCCCCn1nc(-c2cc([N+](=O)[O-])ccc2O)ccc1=O)Cc1ccccc1OC | 0.27 | 31.8% | 1160 nM | – |
| O=c1ccc(-c2ccccc2O)nn1CCCCCCN1CCc2ccccc2C1 | 2.58 | 21.7% | 2580 nM | – |
| CCN(CCCCCCn1nc(-c2ccccc2O)ccc1=O)Cc1ccccc1C | 2.54 | 13.6% | 2540 nM | – |
| CCN(CCCCCCn1nc(-c2cc([N+](=O)[O-])ccc2O)ccc1=O)Cc1ccccc1N(C)C | 0.42 | 28.3% | 460 nM | – |
| CCN(CCCCCCn1nc(-c2cc(C)ccc2O)ccc1=O)Cc1ccccc1N(C)C | 1.26 | 23.9% | 280 nM | – |
| CCN(CCCCCCn1nc(-c2ccccc2O)ccc1=O)Cc1ccccc1Cl | 1.72 | 19.6% | 2310 nM | – |
| CCN(CCCCCCn1nc(-c2cc(OC)ccc2O)ccc1=O)Cc1cccc(F)c1 | 1.95 | 17.4% | 2300 nM | – |
| CCN(CCCCCCn1nc(-c2ccccc2O)ccc1=O)Cc1ccc(F)cc1 | 2.26 | 9.3% | 8580 nM | – |
| CCN(CCCCCCn1nc(-c2cc(Cl)ccc2O)ccc1=O)Cc1ccccc1OC | 0.96 | 24.3% | 9250 nM | – |
| CCN(CCCCCCn1nc(-c2cc(Br)ccc2O)ccc1=O)Cc1cccc(F)c1 | 0.98 | 12.9% | 2570 nM | – |
| CCN(CCCCCCn1nc(-c2cc(C)ccc2O)ccc1=O)Cc1cccc(F)c1 | 1.14 | 29.2% | 890 nM | – |
| O=c1ccc(-c2ccccc2O)nn1CCCCCCN1CCCCC1 | 3.34 | 25.6% | 4560 nM | – |
| CCN(CCCCCCn1nc(-c2cc([N+](=O)[O-])ccc2O)ccc1=O)Cc1cccc(F)c1 | 0.29 | 33.3% | 1000 nM | – |
| CCN(CCCCCCn1nc(-c2ccc(F)cc2O)ccc1=O)Cc1ccccc1N(C)C | 1.09 | 27.3% | 1180 nM | – |
| CCN(CCCCCCn1nc(-c2cc(Cl)ccc2O)ccc1=O)Cc1ccccc1N(C)C | 1.09 | 27.3% | 740 nM | – |
| CCN(CCCCCCn1nc(-c2cc(C)ccc2O)ccc1=O)Cc1ccccc1OC | 1.38 | 38.9% | 1650 nM | – |
